# “And” between values parts separate entries of the source, which are not always exact repeats. Identical values can stand only once. Inconclusive results and toxic doses are left out.
# System: CD2F1 mice, L1210 leukemia ip, survival T/C
# Assay: NCI In Vivo Anticancer Drug Screen. Data for tumor model L1210 Leukemia (intraperitoneal) in CD2F1 (CDF1) mice
# Settings: higher = longer survival
# Outline: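 Ratio T/C, where T is the treated-group value and C the vehicle-dosed control value, from mice implanted with a transplantable tumor.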
# [1] = endpoint: mean survival time, dose: 100.0 mg/kg/injection, schedule: Q01DX009 (ip), vehicle: saline with Tween-80
# [2] = endpoint: mean survival time, dose: 200.0 mg/kg/injection, schedule: Q01DX009 (ip), vehicle: saline with Tween-80
# [3] = endpoint: mean survival time, dose: 400.0 mg/kg/injection, schedule: Q01DX009 (ip), vehicle: saline with Tween-80
# [4] = endpoint: mean survival time, dose: 50.0 mg/kg/injection, schedule: Q01DX009 (ip), vehicle: saline with Tween-80
# [5] = endpoint: mean survival time, dose: 100.0 mg/kg/injection, schedule: Q04DX003 (ip), vehicle: saline with Tween-80
# [6] = endpoint: mean survival time, dose: 200.0 mg/kg/injection, schedule: Q04DX003 (ip), vehicle: saline with Tween-80
# [7] = endpoint: mean survival time, dose: 400.0 mg/kg/injection, schedule: Q04DX003 (ip), vehicle: saline with Tween-80
# [8] = endpoint: median survival time, dose: 6.25 mg/kg/injection, schedule: Q04DX003 (ip), vehicle: saline
# [9] = endpoint: median survival time, dose: 12.5 mg/kg/injection, schedule: Q04DX003 (ip), vehicle: saline
# [10] = endpoint: median survival time, dose: 25.0 mg/kg/injection, schedule: Q04DX003 (ip), vehicle: saline
# [11] = endpoint: median survival time, dose: 50.0 mg/kg/injection, schedule: Q04DX003 (ip), vehicle: saline
smiles,measurement,setting,value
[I][Pt+2][I].[NH-]CC[NH-],T/C,"endpoint: mean survival time, dose: 20.0 mg/kg/injection, schedule: Q04DX003 (ip), vehicle: water",115 % of control
same,T/C,"endpoint: mean survival time, dose: 40.0 mg/kg/injection, schedule: Q04DX003 (ip), vehicle: water",116 % of control
same,T/C,"endpoint: mean survival time, dose: 80.0 mg/kg/injection, schedule: Q04DX003 (ip), vehicle: water",120 % of control
same,T/C,"endpoint: mean survival time, dose: 160.0 mg/kg/injection, schedule: Q04DX003 (ip), vehicle: water",115 % of control
same,T/C,"endpoint: mean survival time, dose: 320.0 mg/kg/injection, schedule: Q04DX003 (ip), vehicle: water",93 % of control
CCOC(=O)NC12c3ccccc3C(c3ccccc31)C(C(=O)O)C2C(=O)O (configuration not stated),T/C,[1],90 % of control
same,T/C,[2],100 % of control
same,T/C,[3],103 % of control
Cc1cccc(C)c1OC(=O)Cl,T/C,"endpoint: mean survival time, dose: 5.0 mg/kg/injection, schedule: Q01DX001 (ip), vehicle: saline",98 % of control
same,T/C,"endpoint: mean survival time, dose: 10.0 mg/kg/injection, schedule: Q01DX001 (ip), vehicle: saline",97 % of control
same,T/C,"endpoint: mean survival time, dose: 20.0 mg/kg/injection, schedule: Q01DX001 (ip), vehicle: saline",97 % of control
same,T/C,"endpoint: mean survival time, dose: 40.0 mg/kg/injection, schedule: Q01DX001 (ip), vehicle: saline",97 % of control
O=[N+]([O-])O.[Zn+2].c1ccncc1,T/C,"endpoint: mean survival time, dose: 75.0 mg/kg/injection, schedule: Q01DX001 (ip), vehicle: saline",108 % of control
O=C1NCCN1c1ncc([N+](=O)[O-])s1,T/C,"endpoint: mean survival time, dose: 25.0 mg/kg/injection, schedule: Q01DX009 (ip), vehicle: saline with Tween-80",101 % of control
same,T/C,[4],97 % of control
same,T/C,[1],97 % of control
CN(C)C(=S)S,T/C,"endpoint: mean survival time, dose: 50.0 mg/kg/injection, schedule: Q01DX001 (ip), vehicle: carboxymethylcellulose (CMC)",93 % of control
same,T/C,"endpoint: mean survival time, dose: 100.0 mg/kg/injection, schedule: Q01DX001 (ip), vehicle: carboxymethylcellulose (CMC)",89 % of control
same,T/C,[5],94 % of control
same,T/C,"endpoint: mean survival time, dose: 200.0 mg/kg/injection, schedule: Q01DX001 (ip), vehicle: carboxymethylcellulose (CMC)",104 % of control
same,T/C,[6],105 % of control
same,T/C,"endpoint: mean survival time, dose: 400.0 mg/kg/injection, schedule: Q01DX001 (ip), vehicle: carboxymethylcellulose (CMC)",106 % of control
same,T/C,[7],100 % of control
Cc1ccc(S(=O)(=O)OCCCCCCCCCCOS(=O)(=O)c2ccc(C)cc2)cc1,T/C,[1],91 % of control
same,T/C,[5],91 % of control
same,T/C,[2],92 % of control
same,T/C,[6],97 % of control
same,T/C,[3],91 % of control
same,T/C,[7],94 % of control
CC1C=CC(C)S1 (configuration not stated),T/C,"endpoint: mean survival time, dose: 100.0 mg/kg/injection, schedule: Q01DX001 (ip), vehicle: saline",100 % of control
same,T/C,"endpoint: mean survival time, dose: 100.0 mg/kg/injection, schedule: Q04DX002 (ip), vehicle: saline with Tween-80",101 % of control
same,T/C,"endpoint: mean survival time, dose: 200.0 mg/kg/injection, schedule: Q01DX001 (ip), vehicle: saline",101 % of control
same,T/C,"endpoint: mean survival time, dose: 200.0 mg/kg/injection, schedule: Q04DX002 (ip), vehicle: saline with Tween-80",104 % of control
same,T/C,"endpoint: mean survival time, dose: 400.0 mg/kg/injection, schedule: Q01DX001 (ip), vehicle: saline",105 % of control
same,T/C,"endpoint: mean survival time, dose: 400.0 mg/kg/injection, schedule: Q04DX002 (ip), vehicle: saline with Tween-80",112 % of control
CSc1nc2cc(S(=O)(=O)N3CCCCC3)ccc2s1,T/C,[1],93 % of control
same,T/C,[5],89 % of control
same,T/C,[2],95 % of control
same,T/C,[6],89 % of control
same,T/C,[3],93 % of control
same,T/C,[7],86 % of control
OCC1OC(c2ccccc2)OC(CO)C(O)C1O (configuration not stated),T/C,[4],96 % of control
same,T/C,[1],98 % of control
same,T/C,[2],94 % of control
O=C1OC(=O)C2C3C=CC(C3)C12 (configuration not stated),T/C,"endpoint: mean survival time, dose: 12.5 mg/kg/injection, schedule: Q04DX003 (ip), vehicle: saline with Tween-80",95 % of control
same,T/C,"endpoint: mean survival time, dose: 25.0 mg/kg/injection, schedule: Q04DX003 (ip), vehicle: saline with Tween-80",101 % of control
same,T/C,"endpoint: mean survival time, dose: 50.0 mg/kg/injection, schedule: Q04DX003 (ip), vehicle: saline with Tween-80",95 % of control
same,T/C,"endpoint: mean survival time, dose: 100.0 mg/kg/injection, schedule: Q01DX001 (ip), vehicle: saline with Tween-80",98 % of control
same,T/C,"endpoint: mean survival time, dose: 100.0 mg/kg/injection, schedule: Q01DX009 (ip), vehicle: saline",102 % of control
same,T/C,[5],101 % of control
same,T/C,"endpoint: mean survival time, dose: 200.0 mg/kg/injection, schedule: Q01DX001 (ip), vehicle: saline with Tween-80",100 % of control
same,T/C,"endpoint: mean survival time, dose: 200.0 mg/kg/injection, schedule: Q01DX009 (ip), vehicle: saline",96 % of control
same,T/C,[6],102 % of control
same,T/C,"endpoint: mean survival time, dose: 400.0 mg/kg/injection, schedule: Q01DX001 (ip), vehicle: saline with Tween-80",93 % of control
same,T/C,"endpoint: mean survival time, dose: 400.0 mg/kg/injection, schedule: Q01DX009 (ip), vehicle: saline",90 % of control
same,T/C,[7],102 % of control
Cn1c(=O)[nH]c2c(nc(-c3ccc4c(c3)OCO4)n2C)c1=O,T/C,"endpoint: mean survival time, dose: 7.8 mg/kg/injection, schedule: Q01DX005 (ip), vehicle: other",100 % of control
same,T/C,"endpoint: mean survival time, dose: 15.6 mg/kg/injection, schedule: Q01DX005 (ip), vehicle: other",95 % of control
same,T/C,"endpoint: mean survival time, dose: 31.3 mg/kg/injection, schedule: Q01DX005 (ip), vehicle: other",100 % of control
same,T/C,"endpoint: mean survival time, dose: 62.5 mg/kg/injection, schedule: Q01DX005 (ip), vehicle: other",103 % of control
CN(C)c1ccc(C(O)c2ccc(N(C)C)cc2)cc1,T/C,[5],90 % of control
same,T/C,[6],91 % of control
same,T/C,[7],94 % of control
NC1CCCCC1N.O=S(=O)([O-])c1ccccc1S(=O)(=O)[O-].[Pt+4],T/C,"endpoint: median survival time, dose: 1.56 mg/kg/injection, schedule: Q04DX003 (ip), vehicle: saline",105 % of control
same,T/C,[8],212 % of control and 216 % of control
same,T/C,[9],212 % of control and 361 % of control
same,T/C,[10],244 % of control and 375 % of control
same,T/C,[11],180 % of control
Ic1ncnc2c1ncn2C1CCCO1 (configuration not stated),T/C,"endpoint: mean survival time, dose: 50.0 mg/kg/injection, schedule: Q04DX003 (ip), vehicle: saline",96 % of control
same,T/C,"endpoint: mean survival time, dose: 100.0 mg/kg/injection, schedule: Q04DX003 (ip), vehicle: saline",94 % of control
same,T/C,"endpoint: mean survival time, dose: 200.0 mg/kg/injection, schedule: Q04DX003 (ip), vehicle: saline",94 % of control
C1CCC2[N-]CCCC2C1.C1CCC2[N-]CCCC2C1.[Br][Pt+2][Br] (configuration not stated),T/C,"endpoint: median survival time, dose: 3.12 mg/kg/injection, schedule: Q04DX003 (ip), vehicle: saline",105 % of control
same,T/C,[8],117 % of control
same,T/C,[9],114 % of control
same,T/C,[10],103 % of control
same,T/C,[11],102 % of control
same,T/C,"endpoint: median survival time, dose: 100.0 mg/kg/injection, schedule: Q04DX003 (ip), vehicle: saline",104 % of control
same,T/C,"endpoint: median survival time, dose: 200.0 mg/kg/injection, schedule: Q04DX003 (ip), vehicle: saline",95 % of control
Cn1c(=O)c2c(nc(NCCOC(=S)S)n2C)n(C)c1=O,T/C,"endpoint: mean survival time, dose: 12.5 mg/kg/injection, schedule: Q01DX005 (ip), vehicle: distilled water + Tween-80",94 % of control
same,T/C,"endpoint: mean survival time, dose: 25.0 mg/kg/injection, schedule: Q01DX005 (ip), vehicle: distilled water + Tween-80",91 % of control
same,T/C,"endpoint: mean survival time, dose: 50.0 mg/kg/injection, schedule: Q01DX005 (ip), vehicle: distilled water + Tween-80",100 % of control
CC(C)SC(C(=O)O)(c1ccccc1)c1ccccc1,T/C,"endpoint: mean survival time, dose: 75.0 mg/kg/injection, schedule: Q01DX001 (ip), vehicle: other",100 % of control
same,T/C,"endpoint: mean survival time, dose: 150.0 mg/kg/injection, schedule: Q01DX001 (ip), vehicle: other",98 % of control
same,T/C,"endpoint: mean survival time, dose: 300.0 mg/kg/injection, schedule: Q01DX001 (ip), vehicle: other",90 % of control
O=[N+]([O-])O.O=[N+]([O-])O.[Cu].c1ccc(CN2CCN(Cc3ccccc3)CCN(Cc3ccccc3)CCN(Cc3ccccc3)CC2)cc1,T/C,"endpoint: mean survival time, dose: 6.25 mg/kg/injection, schedule: Q01DX001 (ip), vehicle: Klucel (hydroxypropylcellulose) (HPC)",91 % of control
same,T/C,"endpoint: mean survival time, dose: 12.5 mg/kg/injection, schedule: Q01DX001 (ip), vehicle: Klucel (hydroxypropylcellulose) (HPC)",94 % of control
same,T/C,"endpoint: mean survival time, dose: 25.0 mg/kg/injection, schedule: Q01DX001 (ip), vehicle: Klucel (hydroxypropylcellulose) (HPC)",108 % of control
same,T/C,"endpoint: mean survival time, dose: 50.0 mg/kg/injection, schedule: Q01DX001 (ip), vehicle: Klucel (hydroxypropylcellulose) (HPC)",100 % of control
CC(=O)C(=O)C1=C2CCCN2CCc2cc3c(cc21)OCO3,T/C,"endpoint: mean survival time, dose: 12.5 mg/kg/injection, schedule: Q01DX009 (ip), vehicle: water",96 % of control
same,T/C,"endpoint: mean survival time, dose: 25.0 mg/kg/injection, schedule: Q01DX009 (ip), vehicle: water",94 % of control
same,T/C,"endpoint: mean survival time, dose: 50.0 mg/kg/injection, schedule: Q01DX009 (ip), vehicle: water",91 % of control
same,T/C,"endpoint: mean survival time, dose: 100.0 mg/kg/injection, schedule: Q01DX009 (ip), vehicle: water",96 % of control

# From PubChem BioAssay AID256 (DTP/NCI, 2004)
